US9301951B2 (Ardelyx, Inc., priority 2010, dated 2016)

Tests used:
[1] = target: T1, rat NaP2b (SLC34A2) (Rattus norvegicus, UniProt Q9JJ09); assay: Inhibition of NaP2b-mediated Pi (33P) uptake in transfected HEK293 cells, rat NaP2b; assay type: cell-based; conditions: HEK293 cells transfected with rat NaP2b, 100 uM phosphate, 0.1 nM to 30 uM, read-out: pIC50 range for rat Nap2b (converted)
T1 construct: host or cells: HEK293
T1 sequence (Q9JJ09 1-695): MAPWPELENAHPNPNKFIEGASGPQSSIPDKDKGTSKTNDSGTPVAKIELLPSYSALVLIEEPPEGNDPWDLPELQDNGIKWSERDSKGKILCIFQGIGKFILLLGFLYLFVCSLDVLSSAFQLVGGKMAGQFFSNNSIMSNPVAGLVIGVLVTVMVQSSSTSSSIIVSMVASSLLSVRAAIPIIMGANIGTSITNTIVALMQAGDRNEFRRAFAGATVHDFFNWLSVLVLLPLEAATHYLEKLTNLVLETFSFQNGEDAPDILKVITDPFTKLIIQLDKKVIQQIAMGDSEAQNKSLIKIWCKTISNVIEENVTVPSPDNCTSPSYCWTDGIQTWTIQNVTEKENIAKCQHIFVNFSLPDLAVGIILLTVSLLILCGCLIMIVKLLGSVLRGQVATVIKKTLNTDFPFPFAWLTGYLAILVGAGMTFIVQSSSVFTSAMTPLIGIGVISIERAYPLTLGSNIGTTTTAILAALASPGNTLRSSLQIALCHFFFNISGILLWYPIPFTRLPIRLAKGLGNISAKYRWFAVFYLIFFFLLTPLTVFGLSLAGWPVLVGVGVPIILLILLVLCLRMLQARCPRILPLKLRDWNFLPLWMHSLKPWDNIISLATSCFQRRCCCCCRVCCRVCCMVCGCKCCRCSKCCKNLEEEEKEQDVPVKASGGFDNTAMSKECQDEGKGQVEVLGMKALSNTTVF
Procedure, shortened: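 HEK293 cells transiently transfected with rat NaP2b; 33P-phosphate uptake measured in sodium or choline buffer (100 uM KH2PO4, PiT-silencing agent, pH 7.4) with compound at twelve concentrations, 0.1 nM–30 uM, in duplicate. Lysed cells counted by scintillation; pIC50 derived from concentration-response.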

[2] = system: Sprague-Dawley rats; assay: In vivo bolus phosphorus challenge (serum phosphate elevation); conditions: rat; oral; drug dose 30; phosphate bolus 15 min after compound; serum 30 min post bolus
Procedure: By pretreating animals with a low phosphorus diet followed by the subsequent dosing of a phosphorus bolus, serum phosphorus levels were monitored after 30 minutes as a surrogate for intestinal phosphorus absorption. […] The in vivo bolus phosphorus challenge model used here mimics this model in rats.
Male, 7-week-old Sprague-Dawley rats (Charles-River laboratories international, Hollister, Calif.) were allowed to acclimatize for a minimum of 3 days before switching to a synthetic low-phosphorus diet (TD.85010, Harlan Teklad, Madison, Wis.) which contains 0.1% phosphorus and 0.6% calcium. At day 5, testing compounds or vehicle alone (as indicated) were orally administered at the indicated dose in a volume of 5 ml/kg, followed by a bolus gavage of monobasic sodium phosphate (1 mmol in 1 ml) 15 min after compound dosing. Serum was collected via retroorbital bleeding 30 min post phosphate bolus and phosphate levels were determined utilizing an ACE ALERA blood chemistry analyzer (Alfa Wassermann Diagnostic Technologies, West Caldwell, N.J.).
The extent of inhibition by test compounds on the elevation of serum phosphate levels in response to the bolus of phosphorus is shown in Table 12 (data are expressed as % Inhibition, with 6-10 animals per data point). The differences between groups were evaluated by one-way analysis of variance with Dunnett's post hoc tests.

[3] = Stability of compounds in simulated gastric fluid (SGF); assay type: in vitro ADME; conditions: simulated gastric fluid (USP, 3 mg/mL pepsin), 1-20 μM, incubation time 6 hr, relative to t=0
Procedure: (§1) Test compounds were incubated at 1-20 μM in simulated gastric fluid (SGF; standard USP solution with 3 mg/mL pepsin) or simulated intestinal fluid (SIF; standard USP solution with 3 mg/mL pancreatin) for 3 hr or 6 hr. HPLC-UV or HPLC-MS were used to determine test compound levels using peak area %. Results (Table 14) were reported as the percentage of test compound remaining after incubation in a given condition relative to test compound present at t=0 in the same condition.

[4] = Stability of compounds in simulated intestinal fluid (SIF); assay type: in vitro ADME; conditions: simulated intestinal fluid (USP, 3 mg/mL pancreatin), 1-20 μM, incubation time 6 hr, relative to t=0
Procedure: as §1

[5] = Fecal recovery of orally administered compounds; assay type: in vivo; conditions: rat; oral gavage; feces collected until 48 hr after dosing
Description: In this respect, it is understood that a recovered compound can include the sum of the parent compound and its metabolites derived from the parent compound, e.g., by means of hydrolysis, conjugation, reduction, oxidation, N-alkylation, glucuronidation, acetylation, methylation, sulfation, phosphorylation, or any other modification that adds atoms to or removes atoms from the parent compound, wherein the metabolites are generated via the action of any enzyme or exposure to any physiological environment including, pH, temperature, pressure, or interactions with foodstuffs as they exist in the digestive milieu. Measurement of fecal recovery of compound and metabolites can be carried out using standard methodology. For example, compound can be administered orally at a suitable dose (e.g., 10 mg/kg) and feces are then collected at predetermined times after dosing (e.g., 24 hours, 48 hours, 72 hours). Parent compound and metabolites can be extracted with organic solvent and analyzed quantitatively using mass spectrometry. A mass balance analysis of the parent compound and metabolites (including, parent=M, metabolite 1 [M+16], and metabolite 2 [M+32]) can be used to determine the percent recovery in the feces.
Quantitative determination of test compound level in feces after oral gavage was performed using the same set of animals used to determine test compound concentration in plasma (Example 352). The animals were kept in metabolic cages and feces were collected from the time of dosing until 48 hr after dosing. Upon collection, feces were dried by lyophilization and ground to a visually homogenous powder. Duplicate samples of ground feces from each individual animal were weighed out and extracted using organic solvent. Extracted samples were then diluted into mobile phase and test compound levels were quantitatively determined by LC-MS/MS analysis as described in Example 352 except that the standard curve was prepared in a feces matrix. Extraction conditions were not optimized for individual compounds, and thus may represent a minimal level of recovery.

[6] = system: Sprague-Dawley rats; assay: In vivo co-dosing in chow (urine P out / P consumed); conditions: feed or water; rat; drug in chow, nominal 100 mg/kg/day (mean dose per line in table); urine 24-96 h; read-out: Mean % inhibition Urine Pout/P consumed
Description: Male, 7-week-old Sprague-Dawley rats (Charles-River laboratories international, Hollister, Calif.) were allowed to acclimate for a minimum of 3 days. The experiment was initiated by switching animals to a synthetic diet (0.6% phosphorus and 0.6% calcium, Harlan Teklad TD.84122) for four days. After this time, the animals were placed into metabolic cages for daily monitoring of food and water consumption, as well as urine and fecal collections. Test compounds were incorporated into the powdered diet listed above containing 3% chocolate flavoring (w/w, BioServ #7345) at 1.3 mg test compound per gram of diet to achieve an average daily nominal dose of 100 mg/kg/day. The actual dose received by each animal was later determined by measuring prepared diet consumption and body weight. Urine samples were collected in three daily periods from 24-48, 48-72, and 72-96 hours of drug dosing. […] Phosphorus levels in the urine were determined by anion exchange chromatography using a Dionex ICS-3000 ion chromatography system. […] Elution of urine phosphate ions was monitored via conductivity detector and reported as ppm relative to a standard ion solution containing phosphate. Daily urinary P output relative to the P consumed in the prepared diet for each animal was calculated. […] The differences between the means of control and treated groups were evaluated by t tests. […]

[7] = target: T2, human NaP2b (SLC34A2) (Homo sapiens, UniProt O95436); assay: Inhibition of NaP2b-mediated Pi (33P) uptake in transfected HEK293 cells, human NaP2b; assay type: cell-based; conditions: HEK293 cells transfected with human NaP2b, 100 uM phosphate, 0.1 nM to 30 uM, read-out: pIC50 range for human NaP2b (converted)
T2 construct: host or cells: HEK293
T2 sequence (O95436 1-690): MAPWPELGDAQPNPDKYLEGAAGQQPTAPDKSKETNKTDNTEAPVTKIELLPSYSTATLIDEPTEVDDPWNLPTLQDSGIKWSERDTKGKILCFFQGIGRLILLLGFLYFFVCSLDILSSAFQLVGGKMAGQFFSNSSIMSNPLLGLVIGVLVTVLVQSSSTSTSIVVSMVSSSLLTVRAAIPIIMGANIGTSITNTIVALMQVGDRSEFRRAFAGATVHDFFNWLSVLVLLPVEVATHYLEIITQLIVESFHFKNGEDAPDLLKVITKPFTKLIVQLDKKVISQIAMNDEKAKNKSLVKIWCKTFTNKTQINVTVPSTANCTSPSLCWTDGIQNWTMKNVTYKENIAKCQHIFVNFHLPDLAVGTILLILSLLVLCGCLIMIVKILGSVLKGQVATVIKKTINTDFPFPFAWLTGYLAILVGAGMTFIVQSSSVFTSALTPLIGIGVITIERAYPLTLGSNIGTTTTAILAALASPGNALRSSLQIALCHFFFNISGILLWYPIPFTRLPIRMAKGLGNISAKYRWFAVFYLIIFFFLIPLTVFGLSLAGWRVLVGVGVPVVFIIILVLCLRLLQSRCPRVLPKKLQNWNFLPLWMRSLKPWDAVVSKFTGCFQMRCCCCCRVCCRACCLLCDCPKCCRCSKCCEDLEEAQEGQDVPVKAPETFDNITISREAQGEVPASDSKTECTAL
Procedure: HEK293 cells were obtained from the American Type Culture collection and propagated per their instructions. Expression clones for rat and human NaP2b (SLC34A2) were obtained from Open Biosystems (Catalog numbers MRN1768-9510282, and MHS1010-99823026, respectively). The sequence of the human protein was mutated to insert a threonine after residue 37, and to introduce a N39D mutation.
The rate of phosphate (Pi) uptake into HEK293 cells was measured using a modification of the method described by Mohrmann et al. (Mohrmann, I., Mohrmann, M., Biber, J., and Murer, H. (1986) Am. J. Phys. 250(3 Pt 1):G323-30.) Transfected HEK293 cells were treated with a pharmacological agent to minimize endogenous PiT-mediated phosphate transport activity, such that the only remaining sodium-dependent phosphate transport activity is that which was bestowed by introduction of the NaP2b genes.
Cells were seeded into 96-well plates at 25,000 cells/well and cultured overnight. Lipofectamine 2000 (Invitrogen) was used to introduce the NaP2b cDNA, and the cells were allowed to approach confluence during a second overnight incubation. […] Cells were then overlayed with either choline uptake buffer or sodium uptake buffer (14 mM Tris, 137 mM sodium chloride, 5.4 mM KCl, 2.8 mM CaCl2, 1.2 mM MgSO4, 100 uM KH2PO4, PiT-silencing agent, 1 mg/mL Bovine Serum Albumin, pH 7.4) containing 6-9 uCi/mL ^33P orthophosphoric acid (Perkin Elmer) and test compound. Each compound was tested at twelve concentrations ranging from 0.1 nM to 30 uM. Assays were run in duplicate.
After incubation for 3-30 minutes at room temperature, assay mixtures were removed, and the cells were washed twice with ice cold stop solution (137 mM sodium chloride, 14 mM Tris, pH 7.4). Cells were lysed by addition of 20 μL 0.1% Tween 80 followed by 100 μL scintillation fluid, and counted using a TopCount (Perkin Elmer).
pIC50 (the negative log of the […]) values of the test compounds were calculated using GraphPad Prism.

O=C(O)CCSCc1cccc(C(=O)Nc2ccc(N3CCOCC3)cc2-c2cc(C(=O)NCc3cccc(C(F)(F)F)c3)ccn2)c1 [Example 14, 3-((3-((4-Morpholino-2-(4-((3-(trifluoromethyl)benzyl)carbamoyl)pyridin-2-yl)phenyl)carbamoyl)benzyl)thio)propanoic acid]
IC50 [1]: 10 to 31.6 µM | % Inhibition of Serum P elevation [2]: 10-20%

CN(CCN1CCOCC1)C(=O)c1cccc(C(=O)Nc2ccc(OC3CCC3)cc2-c2cc(C(=O)NCc3cccc(C(F)(F)F)c3)ccn2)c1 [Example 26, N1-(4-Cyclobutoxy-2-(4-((3-(trifluoromethyl)benzyl)carbamoyl)pyridin-2-yl)phenyl)-N3-methyl-N3-(2-morpholinoethyl)isophthalamide]
% remaining, SGF [3]: >80% | IC50 [1]: 1 to 7.94 µM | % remaining, SIF [4]: 60-80% | % recovered in feces [5]: <20%

CN(CCN1CCOCC1)C(=O)c1cccc(C(=O)Nc2ccc(N3CCCCC3)cc2-c2cc(C(=O)N[C@H]3CCCc4ccccc43)ccn2)c1 [Example 37, (S)—N1-Methyl-N1-(2-morpholinoethyl)-N3-(4-(piperidin-1-yl)-2-(4-((1,2,3,4-tetrahydronaphthalen-1-yl)carbamoyl)pyridin-2-yl)phenyl)isophthalamide]
IC50 [1]: < 1 µM | inhibition in vivo at 100 mg/kg/day [6]: ≤ 10% | IC50 [7]: < 1 µM

CCN(CC)c1ccc(NC(=O)c2cccc(COCCOCCOCCOCCOCCOCCOC(=O)NCCOCCOCCOCCOCCOCCOCCOC)c2)c(-c2cc(C(=O)NCc3cccc(C(F)(F)F)c3)ccn2)c1 [Example 174, 1-(3-(4-(diethylamino)-2-(4-(3-(trifluoromethyl)benzylcarbamoyl)pyridin-2-yl)phenylcarbamoyl)phenyl)-2,5,8,11,14,17-hexaoxanonadecan-19-yl 2,5,8,11,14,17,20-heptaoxadocosan-22-ylcarbamate]
% remaining, SGF [3]: >80% | IC50 [1]: 1 to 7.94 µM | % remaining, SIF [4]: >80% | IC50 [7]: < 1 µM

O=C(O)CCSCc1cccc(C(=O)Nc2ccc(Cl)cc2-c2cc(C(=O)NCc3cccc(C(F)(F)F)c3)ccn2)c1 [Example 21, 3-((3-((4-Chloro-2-(4-((3-(trifluoromethyl)benzyl)carbamoyl)pyridin-2-yl)phenyl)carbamoyl)benzyl)thio)propanoic acid]
IC50 [1]: 1 to 7.94 µM | % Inhibition of Serum P elevation [2]: 10-20%
